The structures appear in SMILES notation.

In this experiment the target is T1, IC-GPCR2 (Homo sapiens, UniProt Q8TDV5, S309L).
T1 construct: expressed in transfected cells
T1 sequence (Q8TDV5 1-335 S309L): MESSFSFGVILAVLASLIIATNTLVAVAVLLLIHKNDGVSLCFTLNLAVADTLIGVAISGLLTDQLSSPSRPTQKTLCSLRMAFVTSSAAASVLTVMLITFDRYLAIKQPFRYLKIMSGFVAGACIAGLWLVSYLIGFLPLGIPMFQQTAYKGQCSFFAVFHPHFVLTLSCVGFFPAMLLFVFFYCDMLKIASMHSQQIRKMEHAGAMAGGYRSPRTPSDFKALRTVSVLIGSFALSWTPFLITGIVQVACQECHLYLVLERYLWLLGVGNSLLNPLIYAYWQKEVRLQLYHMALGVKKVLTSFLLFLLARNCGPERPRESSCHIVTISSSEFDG
Nature of the experiment: Stimulation of cAMP in CHO cells stably expressing IC-GPCR2 (HTRF cAMP assay). Type of experiment: cell-based. The conditions noted are these: 0.5 h, 30 minutes, IC-GPCR2 stably expressing CHO cells, read-out: Activity at 10 uM (% change in FRET signal from DMSO control). The procedure:
This assay was developed using a stable cell line expressing IC-GPCR-2, generated as follows. IC-GPCR2 (SEQ ID NO:1) was cloned into Gateway pDEST 40vector (Invitrogen), using the Gateway cloning system (invitrogen) according to the manufacturer's instructions. A stable cell line was generated by transfecting a 10 cm plate of CHO cells (source) with 8 ug of this construct using Transit-CHO transfection kit (Mirus). CHO cells were plated the day prior to transfection at a density of 3,000,000 cells/plate. Clones were selected using the antibiotic G418 at 500 ug/ml. 23 clones were picked and assayed for the expression of the receptor by measuring changes in intracellular cAMP levels in response to an IC-GPCR2 agonist.
To measure cAMP activity in response to IC-GPCR2 agonist, the clones were plated in 96 well plates at 17500 cells per well. On the day after plating, cells were incubated with the IC-CPCR2 agonist at […] for 30 minutes in Ham's F12 Media (Gibco) with 0.04% DMSO. cAMP was measured using the cAMP dynamic kit from Cis Bio (Bedford, Mass.) according to the manufacturer's instructions. Briefly, cells were lysed, and cAMP levels determined by competitive immunoassay using D2 labeled cAMP, and europium cryptate tagged anti cAMP antibody. When in close proximity, the D2 and europium cryptate undergo fluorescence resonance energy transfer (FRET), which is measured as a fluorescence ratio (665 nm/620 nm). Unlabelled cAMP in the cell lysate competed with the D2 labeled cAMP for the europium crypate labeled antibody. The resulting decrease in FRET signal corresponded to intracellular cAMP levels. Fluorescence was read on a BMG Labtech PHERAstar, software version 1.50.
Compounds were dissolved in 100% DMSO to a concentration of […] to provide stock solutions. To determine activity against IC-GPCR2, compounds were incubated with IC-GPCR2 stably expressing cells (described above), at 6-8 concentrations ranging from 0.00003 to 10 micromolar, in 96 well plates, in 50 ul of Hams F12 media for 30 minutes. Cells were plated at 17500 cells per well 1 day before running the assay. All compounds were also screened against the parental CHO cells. cAMP was measured using the cAMP dynamic kit from Cis Bio (Bedford, Mass.), according to the manufacturer's instructions. Briefly, cells were lysed and cAMP levels determined by competitive immunoassay using D2 labeled cAMP, and europium cryptate tagged anti cAMP antibody. When in close proximity, the D2 and europium cryptate undergo fluorescence resonance energy transfer (FRET), which is measured as a fluorescence ratio (665 nm/620 nm). Unlabelled cAMP in the cell lysate competed with the D2 labeled cAMP for the europium crypate labeled antibody. The resulting decrease in FRET signal corresponded to intracellular cAMP levels.
Activities of compounds disclosed in Table 1 and Table 2 below are expressed as the % change in FRET signal from DMSO control. “*” no activity observed when tested at 10 micromolar but no higher concentrations were tested. NT indicates the compound was not tested at the indicated concentration.
For orientation: Time-resolved FRET reads energy transfer from a long-lived donor to a nearby acceptor.
As for `CC(C)COC(=O)N1CCC(c2nc(COc3ccc(S(C)(=O)=O)cc3)cs2)CC1` [Example 24, 4-[4-(4-Methanesulfonyl-phenoxymethyl)-thiazol-2-yl]-piperidine-1-carboxylic acid isobutyl ester], the activation at 10 µM amounted to 58%.
Then `CS(=O)(=O)c1ccc(OCc2csc(C3CCN(C(=O)OC45CC6CC(CC(C6)C4)C5)CC3)n2)cc1` [Example 25, 4-[4-(4-Methanesulfonyl-phenoxymethyl)-thiazol-2-yl]-piperidine-1-carboxylic acid adamantan-1-yl ester], with 23%; and `COC(=O)N1CCC(c2nc(COc3ccc(S(C)(=O)=O)cc3)cs2)CC1` [Example 26, 4-[4-(4-Methanesulfonyl-phenoxymethyl)-thiazol-2-yl]-piperidine-1-carboxylic acid methyl ester], with 58%.
For `CS(=O)(=O)c1ccc(OCc2csc(C3CCN(C(=O)Oc4ccc(F)cc4)CC3)n2)cc1` [Example 27, 4-[4-(4-Methanesulfonyl-phenoxymethyl)-thiazol-2-yl]-piperidine-1-carboxylic acid 4-fluoro-phenyl ester], the activation at 10 µM came to 63%.
Regarding `COc1ccc(OC(=O)N2CCC(c3nc(COc4ccc(S(C)(=O)=O)cc4)cs3)CC2)cc1` [Example 28, 4-[4-(4-Methanesulfonyl-phenoxymethyl)-thiazol-2-yl]-piperidine-1-carboxylic acid 4-methoxy-phenyl ester], the activation at 10 µM was 62%.
In the case of `CS(=O)(=O)c1ccc(OCc2csc(C3CCN(C(=O)Oc4cccc5ccccc45)CC3)n2)cc1` [Example 29, 4-[4-(4-Methanesulfonyl-phenoxymethyl)-thiazol-2-yl]-piperidine-1-carboxylic acid naphthalen-1-yl ester], the activation at 10 µM is 51%.
For the compound `CC(C)COC(=O)N1CCC(c2nc(COc3ccc(-n4cnnn4)cc3)cs2)CC1` [Example 30, 4-[4-(4-Tetrazol-1-yl-phenoxymethyl)-thiazol-2-yl]-piperidine-1-carboxylic acid isobutyl ester], the activation at 10 µM turned out to be 73%.
For the compound `CCCCCOC(=O)N1CCC(c2nc(COc3ccc(-n4cnnn4)cc3)cs2)CC1` [Example 31, 4-[4-(4-Tetrazol-1-yl-phenoxymethyl)-thiazol-2-yl]-piperidine-1-carboxylic acid pentyl ester], the activation at 10 µM is 88%.
Consider `O=C(OCCF)N1CCC(c2nc(COc3ccc(-n4cnnn4)cc3)cs2)CC1` [Example 32, 4-[4-(4-Tetrazol-1-yl-phenoxymethyl)-thiazol-2-yl]-piperidine-1-carboxylic acid 2-fluoro-ethyl ester], for which the activation at 10 µM is 88%.
As for `CCCCOC(=O)N1CCC(c2nc(COc3ccc(-n4cnnn4)cc3)cs2)CC1` [Example 33, 4-[4-(4-Tetrazol-1-yl-phenoxymethyl)-thiazol-2-yl]-piperidine-1-carboxylic acid butyl ester], the figure is 77%.
Then `CC(C)(C)COC(=O)N1CCC(c2nc(COc3ccc(-n4cnnn4)cc3)cs2)CC1` [Example 34, 4-[4-(4-Tetrazol-1-yl-phenoxymethyl)-thiazol-2-yl]-piperidine-1-carboxylic acid 2,2-dimethyl-propyl ester], with 70%; and `CCCCCCOC(=O)N1CCC(c2nc(COc3ccc(-n4cnnn4)cc3)cs2)CC1` [Example 35, 4-[4-(4-Tetrazol-1-yl-phenoxymethyl)-thiazol-2-yl]-piperidine-1-carboxylic acid hexyl ester], with 64%.
As to `CCCCC(CC)COC(=O)N1CCC(c2nc(COc3ccc(-n4cnnn4)cc3)cs2)CC1` (stereo not shown) [Example 36, 4-[4-(4-Tetrazol-1-yl-phenoxymethyl)-thiazol-2-yl]-piperidine-1-carboxylic acid 2-ethyl-hexyl ester], the activation at 10 µM came to 95%.
Take `O=C(OCCOCc1ccccc1)N1CCC(c2nc(COc3ccc(-n4cnnn4)cc3)cs2)CC1` [Example 37, 4-[4-(4-Tetrazol-1-yl-phenoxymethyl)-thiazol-2-yl]-piperidine-1-carboxylic acid 2-benzyloxy-ethyl ester]: the activation at 10 µM amounted to 80%.
For the compound `CC(C)[C@@H]1CC[C@@H](C)C[C@H]1OC(=O)N1CCC(c2nc(COc3ccc(-n4cnnn4)cc3)cs2)CC1` [Example 38, 4-[4-(4-Tetrazol-1-yl-phenoxymethyl)-thiazol-2-yl]-piperidine-1-carboxylic acid 2-isopropyl-5-methyl-cyclohexyl ester], the activation at 10 µM turned out to be 39%.
For `CS(=O)(=O)c1ccc(OCc2csc(C3CCN(C(=O)C45CC6CC(CC(C6)C4)C5)CC3)n2)cc1` [Example 39, Adamantan-1-yl-{4-[4-(4-methanesulfonyl-phenoxymethyl)-thiazol-2-yl]-piperidin-1-yl}-methanone], the activation at 10 µM was determined as 9%.
Take `CS(=O)(=O)c1ccc(OCc2csc(C3CCN(C(=O)c4cccnc4)CC3)n2)cc1` [Example 40, {4-[4-(4-Methanesulfonyl-phenoxymethyl)-thiazol-2-yl]-piperidin-1-yl}-pyridin-3-yl-methanone]: the activation at 10 µM was found to be 21%.
Then `CC(C)(C)CC(=O)N1CCC(c2nc(COc3ccc(-n4cnnn4)cc3)cs2)CC1` [Example 41, 3,3-Dimethyl-1-{4-[4-(4-tetrazol-1-yl-phenoxymethyl)-thiazol-2-yl]-piperidin-1-yl}-butan-1-one], with 75%; and `COC(=O)C(=O)N1CCC(c2nc(COc3ccc(-n4cnnn4)cc3)cs2)CC1` [Example 42, Oxo-{4-[4-(4-tetrazol-1-yl-phenoxymethyl)-thiazol-2-yl]-piperidin-1-yl}-acetic acid methyl ester], with 67%; and `CCOC(=O)CC(=O)N1CCC(c2nc(COc3ccc(-n4cnnn4)cc3)cs2)CC1` [Example 43, 3-Oxo-3-{4-[4-(4-tetrazol-1-yl-phenoxymethyl)-thiazol-2-yl]-piperidin-1-yl}-propionic acid ethyl ester], with 47%.
Consider `CN1CCN(C(=O)N2CCC(c3nc(COc4ccc(-n5cnnn5)cc4)cs3)CC2)CC1` [Example 44, (4-Methyl-piperazin-1-yl)-{4-[4-(4-tetrazol-1-yl-phenoxymethyl)-thiazol-2-yl]-piperidin-1-yl}-methanone], for which the activation at 10 µM is 53%.
Then `CCN(CC)C(=O)N1CCC(c2nc(COc3ccc(-n4cnnn4)cc3)cs2)CC1` [Example 45, 4-[4-(4-Tetrazol-1-yl-phenoxymethyl)-thiazol-2-yl]-piperidine-1-carboxylic acid diethylamide], with 84%; and `CCNC(=O)N1CCC(c2nc(COc3ccc(-n4cnnn4)cc3)cs2)CC1` [Example 46, 4-[4-(4-Tetrazol-1-yl-phenoxymethyl)-thiazol-2-yl]-piperidine-1-carboxylic acid ethylamide], with 30%; and `CS(=O)(=O)c1ccc(OCc2csc(C3CCN(c4ncccn4)CC3)n2)cc1` [Example 47, 2-{4-[4-(4-Methanesulfonyl-phenoxymethyl)-thiazol-2-yl]-piperidin-1-yl}-pyrimidine], with 51%.
On to `CCc1cnc(N2CCC(c3nc(COc4ccc(S(C)(=O)=O)cc4)cs3)CC2)nc1` [Example 51, 5-Ethyl-2-{4-[4-(4-methanesulfonyl-phenoxymethyl)-thiazol-2-yl]-piperidin-1-yl}-pyrimidine], for which the activation at 10 µM turned out to be 57%.
